Data reported in ChEMBL document CHEMBL1201862, “PubChem BioAssay data set” (2004).
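How tested: cells in 96-well plates exposed to compound for 48 hours at five concentrations. GI50: concentration for 50% inhibition of growth.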 Active and inactive are the calls of the source. No stated cut-off is given here; in the data, active = GI50 up to about 1.1 µM and inactive = higher.

What was measured:
Assay in all cases: inhibition of tumour cell growth, NCI panel, 48 h
SR = test system: SR
SK-MEL-5 = test system: SK-MEL-5
LOX IMVI = test system: LOX IMVI
KM12 = test system: KM12
NCI-H522 = test system: NCI-H522
HCT-15 = test system: HCT-15
CCRF-CEM = test system: CCRF-CEM
HT-29 = test system: HT-29
SNB-19 = test system: SNB-19
MOLT-4 = test system: MOLT-4
A549 = test system: A549
DLD-1 = test system: DLD-1
LXFL 529 = test system: LXFL 529
SF-268 = test system: SF-268
CAKI-1 = test system: CAKI-1
M19-MEL = test system: M19-MEL
U-251 = test system: U-251
COLO 205 = test system: COLO 205

SMILES	GI50 (SR)	GI50 (SK-MEL-5)	GI50 (LOX IMVI)	GI50 (KM12)	GI50 (NCI-H522)	GI50 (HCT-15) [µM]	GI50 (CCRF-CEM)	GI50 (HT-29)	GI50 (SNB-19)	GI50 (MOLT-4)	GI50 (A549)	GI50 (DLD-1)	GI50 (LXFL 529)	GI50 (SF-268)	GI50 (CAKI-1)	GI50 (M19-MEL)	GI50 (U-251)	GI50 (COLO 205)
COC(=O)C1CC2C=CC=CC(=O)C2(C)C1 (centres undefined)	27.8 µM (inactive)	51.1 µM (inactive)	53.3 µM (inactive)	45.7 µM (inactive)	> 10 µM (inactive)	31	21.6 µM (inactive)	40 µM (inactive)	76.7 µM (inactive)	25.6 µM (inactive)	> 100 µM (inactive)	15.6 µM (inactive)	31.2 µM (inactive)	37.3 µM (inactive)	> 100 µM (inactive)	55.5 µM (inactive)	> 100 µM (inactive)	76.9 µM (inactive)
Cc1ccc(NC(=O)CC2SC(Nc3ccc(Cl)cc3)=NC2=O)cc1C (centres undefined)	6.59 µM (inactive)	20.3 µM (inactive)	19.4 µM (inactive)	19.9 µM (inactive)	7.85 µM (inactive)	15.2	3.24 µM (inactive)	18.2 µM (inactive)	> 78.3 µM (inactive)	2.38 µM (inactive)	18.2 µM (inactive)	18.9 µM (inactive)	19.5 µM (inactive)	18.3 µM (inactive)	21.2 µM (inactive)	17.7 µM (inactive)	18.5 µM (inactive)	13.2 µM (inactive)
CC1(C)O[C@@H](CC/C=C/CO)[C@H](CC/C=C/CO)O1	74.6 µM (inactive)	> 100 µM (inactive)	> 100 µM (inactive)	> 100 µM (inactive)	> 100 µM (inactive)	> 100	> 100 µM (inactive)	> 100 µM (inactive)	> 100 µM (inactive)	> 100 µM (inactive)	> 100 µM (inactive)	> 100 µM (inactive)	> 100 µM (inactive)	> 100 µM (inactive)	> 100 µM (inactive)	> 100 µM (inactive)	> 100 µM (inactive)	> 100 µM (inactive)
